Experimental data published in US8552018B2, “Substituted tricyclic compounds as protein kinase inhibitors” (Arizona Board of Regents on behalf of the University of …, priority 2003, dated 2013).

Tests used:
GIST882 cell line [1] = assay: Cancer cell cytotoxicity assay (sulforhodamine B); type: cell-based
Experimental: (§1) To validate the hypothesis that the designed c-kit/PDGFR tyrosine kinase inhibitors mediate GIST882 cell killing and PDGFR-mediated cell killing of pancreatic cancer cell lines (CFPAC-1, PANC-1 and MIA PaCa-2), an in vitro cytotoxicity assay was performed. The GIST882 cell line used in this study has a c-kit gain-of-function mutation (K642E). […] First the cells were cultured. GIST882 cells were provided by Dr. Jonathan A. Fletcher (Dana-Farber Cancer Institute, Boston, Mass.). PANC-1 and MIAPaCa-2 cells were provided by Dr. Daniel Von Hoff (Arizona Cancer Center, Tucson, Ariz.). […] All the cell lines were incubated in a humidified incubator at 37° C. with 5% CO2 atmosphere.
(§2) After incubation for 4 days at 37° C. in a humidified incubator, the cells were fixed with 10% Trichloroacetic acid solution (Catalog No. 490-10, Sigma). Subsequently, they were labeled with 0.04% Sulforhodamine B (S9012, Sigma) in 1% acetic acid. After multiple washes to remove excess dye, 100 μl of 50 mM Tris solution was added to each well in order to dissolve the dye. The absorbance of each well was read on a plate reader (Wallac Vector^2, PerkinElmer) at the wavelength of 570 nm. Data were expressed as the percentage of survival of control calculated from the absorbance corrected for background absorbance. The surviving percent of cells was determined by dividing the mean absorbance values of the […] by the mean absorbance values of the control and multiplying by 100.

[2] = system: pancreatic cancer cell lines MIAPaCa-2 and PANC-1; assay: Cancer cell cytotoxicity assay, range over both pancreatic lines; type: cell-based; settings: potency order
Experimental: as §1
as §2, with “After multiple washes to remove excess dye, 100 μl of 50 mM Tris solution was added to each well in order to dissolve the dye.” left out

PANC-1 cells = assay: Cancer cell cytotoxicity assay (sulforhodamine B); type: cell-based; settings: Homo sapiens, 96 h; PANC-1, 4 days; read-out: IC50 PDGFR PANC-1
Experimental: To validate the hypothesis that the designed c-kit/PDGFR tyrosine kinase inhibitors mediate GIST882 cell killing and PDGFR-mediated cell killing of pancreatic cancer cell lines (CFPAC-1, PANC-1 and MIA PaCa-2), an in vitro cytotoxicity assay was performed. The GIST882 cell line used in this study has a c-kit gain-of-function mutation (K642E). The assay utilized the Cell Titer 965 Non-Radioactive Cell Proliferation Assay (Promega Corp., Madison, Wis.). First the cells were cultured. GIST882 cells were provided by Dr. Jonathan A. Fletcher (Dana-Farber Cancer Institute, Boston, Mass.). PANC-1 and MIAPaCa-2 cells were provided by Dr. Daniel Von Hoff (Arizona Cancer Center, Tucson, Ariz.). GIST882 cells were cultured in RPMI 1640 medium (Cat #21870-076, Invitrogen Corporation) supplemented with 300 mg/L L-glutamine, 100 unit/ml penicillin, 100 μg/ml streptomycin and 15% fetal bovine serum. PANC-1 and MIAPaCa-2 cells were maintained in RPMI 1640 medium (cat #10-040, Mediatech, Inc.) supplemented with 100 unit/ml penicillin, 100 μg/ml streptomycin and 10% fetal bovine serum. All the cell lines were incubated in a humidified incubator at 37° C. with 5% CO2 atmosphere.
as §2, with “Cells were plated at a density of 2000 to 10000 cells per well, depending on their growth rate, in 0.1 mL medium on day 0 in 96-well Falcon microtiter plates (#3072, Becton-Dickinson Labware, Lincoln Park, N.J.). On day 1, 10 μL of serial dilutions of the individual compounds were added to the plates in replicates of 4. After incubation” for “After incubation”

GIST882 cell line [3] = assay: GIST882 cell growth assay (Cell-Titer-Glo); type: cell-based
Experimental: (§3) Briefly, cells are seeded into 96-well, tissue-culture treated, opaque white plates (Thermo Electron, Vantaa, Finland), at between 5000 and 7500 cells per well, depending on the speed of cell proliferation, in 100 μl of appropriate growth medium (determined by the ATCC). Cells are then exposed to the appropriate concentration of drug or an equal amount of DMSO (drug diluent) and allowed to grow in its presence for 96 hours. Following this, 100 μl of Cell-Titer-Glo reagent (Promega, Inc., Madison, Wis.) is added to each well. Plates are then shaken for 2 minutes at room temperature to allow for cell lysis and incubated for 10 minutes to stabilize the luminescent signal. Similar to the Kinase-Glo assay reagent, this reagent contains both luciferase enzyme and its substrate luciferin. Luciferase, activated by ATP in the cell lysate, catalyzes the conversion of luciferin to oxyluciferin, a reaction which produces light. The amount of light produced is proportionate to the amount of ATP in the cell lysate, which is itself proportional to cell number and gives an index of cellular proliferation.
as §3, with “Various compounds of the invention, including (IV-1-3) (also referred to as HPK16), (III-1-3) (also referred to as HPK56), (III-1-4) (also referred to as HPK57), (III-1-5) (also referred to as HPK59), and (II-2-7) (also referred to as HPK61) were tested for activity against GIST tumor cells using the GIST882 cell line. Briefly,” for “Briefly,”

c-Kit = c-Kit (Homo sapiens, UniProt P10721); assay: Autophosphorylation assay with γ-32P-ATP; type: biochemical; settings: FIG. 28A
Experimental: Enzymes were incubated with the appropriate concentration of inhibitor and radiolabeled γ-^32P-ATP. After 30 minutes, the reaction mixtures were electrophoresed on an acrylamide gel and autophosphorylation, quantitated by the amount of radioactivity incorporated into the enzyme, was assayed.

c-Kit, sequence (P10721 26-976): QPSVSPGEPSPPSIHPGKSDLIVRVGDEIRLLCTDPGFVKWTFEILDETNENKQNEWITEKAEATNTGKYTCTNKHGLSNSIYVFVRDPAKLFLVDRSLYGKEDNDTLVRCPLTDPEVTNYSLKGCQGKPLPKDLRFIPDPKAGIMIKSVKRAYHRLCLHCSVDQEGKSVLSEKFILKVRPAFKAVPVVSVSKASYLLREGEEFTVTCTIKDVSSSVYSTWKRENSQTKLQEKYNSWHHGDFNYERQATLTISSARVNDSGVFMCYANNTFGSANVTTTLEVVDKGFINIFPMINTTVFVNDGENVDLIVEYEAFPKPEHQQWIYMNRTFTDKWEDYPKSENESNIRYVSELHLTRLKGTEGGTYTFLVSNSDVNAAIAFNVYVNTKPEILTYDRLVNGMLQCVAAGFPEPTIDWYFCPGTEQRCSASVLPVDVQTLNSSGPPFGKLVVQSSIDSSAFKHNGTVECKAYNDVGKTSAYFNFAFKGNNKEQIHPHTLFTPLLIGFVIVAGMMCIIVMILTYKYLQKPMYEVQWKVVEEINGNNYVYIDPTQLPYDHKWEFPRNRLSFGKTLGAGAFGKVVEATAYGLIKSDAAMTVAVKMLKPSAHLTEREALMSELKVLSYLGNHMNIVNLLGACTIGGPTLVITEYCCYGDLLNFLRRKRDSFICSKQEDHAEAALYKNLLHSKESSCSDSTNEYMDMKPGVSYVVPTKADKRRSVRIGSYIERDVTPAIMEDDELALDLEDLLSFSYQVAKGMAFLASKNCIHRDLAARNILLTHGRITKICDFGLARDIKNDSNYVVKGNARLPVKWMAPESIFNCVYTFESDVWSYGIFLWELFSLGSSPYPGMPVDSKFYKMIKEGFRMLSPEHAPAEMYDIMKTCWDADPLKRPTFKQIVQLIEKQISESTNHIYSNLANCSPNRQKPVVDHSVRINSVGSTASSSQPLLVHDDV

With `COc1cc2[nH]c3ncnc(N4CCN(C(=S)NCc5ccc6c(c5)OCO6)CC4)c3c2cc1OC` [HPK61, 4-(6,7-Dimethoxy-9H-1,3,9-triaza-fluoren-4-yl)-piperazine-1-carbothioic acid (benzo[1,3]dioxol-5-ylmethyl)-amide] the “cells alive at day 4” value (GIST882 cell line [1]; GIST882, day 4) was 5%, the IC50 (GIST882 cell line [1]; Homo sapiens, 96 h, GIST882, 4 days, read-out: IC50 c-kit GIST882) was 0.45 µM and the IC50 [2] was 15.5 to 16 µM. For the same compound, the IC50 (PANC-1 cells) was 16 µM, the “inhibitory activity in GIST882 cell line (in words)” value (GIST882 cell line [3]; FIG. 29, 96 hours) was “highest inhibitory activity” and the IC50 (GIST882 cell line [3]; Homo sapiens, GIST882, 96 hours) was 0.45 µM. For the same compound, the “inhibition of c-Kit autophosphorylation (in words)” value (c-Kit) was “dose-dependent”.
